Here are results for 74 compounds from PubChem BioAssay AID179 (DTP/NCI, 2004).

The test system of this test is CEM cells HIV-1 protection, formazan growth assay. Kind of test: NCI AIDS Antiviral Assay. The settings on record: for IC50: measured here: growth of uninfected CEM cells. A digest of the protocol: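 Screen of anti-HIV-1 activity in human CEM cells using a formazan-based growth measurement at five drug concentrations. Hits with 50% or greater protection were repeated, and confirmation required reproducible complete protection.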

Calls of active or inactive are those of the source.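 Rule for the calls: active = compounds giving half or more protection of infected cells from virus-caused growth loss, again on retest; inactive = the rest.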

As to `OC/C=C/c1cccc(Cl)c1`, the result was inactive.

As usually defined, the EC50 is the midpoint of the concentration-response curve. The IC50 is the concentration at which inhibition is half-maximal. A high value points to lower potency. In the case of `Cc1nc2nnnn2c2c1C(=O)Nc1ccccc1N2`, the EC50 was > 200 µM and the IC50 was determined as 83.2 µM.

With `O=[N+]([O-])c1nccn1CCC[n+]1ccccc1`, the EC50 is > 200 µM and the IC50 is > 200 µM.

For `CCN(CC)CCCn1c(=O)c2cccnc2n2c3c(=O)n(C)c(=O)n(C)c3nc12`, the EC50 was 25.1 µM and the 50% inhibitory concentration (IC50) is 126 µM.

Take `CC(=O)C1(N=Nc2ccc(S(=O)(=O)Nc3ccccn3)cc2)CCOC1=O` (centres undefined): the EC50 is > 200 µM and the IC50 is > 200 µM. Regarding `CCCCCNc1nonc1N`, the EC50 was > 200 µM and the IC50 is > 200 µM. For `Cc1c2ccccc2nc(CSc2nc3ccccc3s2)[n+]1[O-]`, the EC50 was 64.6 µM and the IC50 was > 200 µM. For `CCO/C(=C/C(=O)OC)NCCc1c[nH]c2ccccc12`, the EC50 was > 138 µM and the IC50 was determined as 135 µM. For the compound `N=c1c2ccccc2nc2oc3ccccc3n12`, the EC50 was > 200 µM and the IC50 is > 200 µM. In the case of `O=C(Nc1ccc(Cl)cc1)NC(O)C(Cl)(Cl)Cl` (centres undefined), the EC50 was > 200 µM and the IC50 was found to be 148 µM. Take `O=c1[nH]c(Br)nc2n[nH]nc12`: the EC50 is > 200 µM and the IC50 was found to be 4.9 µM. For `CSc1c(C)n([O-])c2cc(Cl)c(Cl)cc2[n+]1=O`, the EC50 is > 100 µM and the IC50 was determined as 2.82 µM. In the case of `CCCCc1ccc(-n2sc3ncc([N+](=O)[O-])cc3c2=O)cc1`, the EC50 is > 17 µM and the IC50 worked out at 10 µM.

`Cc1nnc(SCC2=C(C(=O)O)N3C(=O)C(NC(=O)Cn4cnnn4)C3SC2)s1` (centres undefined): the EC50 was > 200 µM and the IC50 was > 200 µM. For the compound `N#CCC(=O)N/N=C\C(O)C(O)C(O)C(O)CO` (centres undefined), the outcome was inactive. As for `CSc1c(C(=O)Nc2ccc(Cl)cc2)c(N)[nH]c(=O)c1C#N`, the EC50 is > 200 µM and the IC50 was determined as 1.2 µM. In the case of `CCc1ccc([OH2+])c(C(=O)[O-])c1.CCc1ccc([OH2+])c(C(=O)[O-])c1.CCc1ccc([OH2+])c(C(=O)[O-])c1.CCc1ccc([OH2+])c(C(=O)[O-])c1.[Cu+2].[Cu+2]`, the EC50 is > 200 µM and the half-maximal inhibitory concentration (IC50) was found to be 23.4 µM. For `CC1(C)C(C#N)C1C1=C(N2CCOCC2)[C@]2(C)C(OC(=O)c3ccccc3)CC[C@@H]2C1` (some centres undefined), in that order: > 50.1 µM and 38.9 µM. For `COC1(OC)C2(Cl)C(Cl)=C(Cl)C1(Cl)C1C(=O)C=CC(=O)C12` (centres undefined), the EC50 is > 60.3 µM and the IC50 came out at 25.1 µM. For `O=C1C2=C(c3ccccc31)C(c1ccccc1)N1C(=O)CSC1=N2` (centres undefined), in that order: > 77.6 µM and 34.7 µM.

Turning to `Nc1ncnc2c1ncn2C1OC(CCP(=O)(O)O)C(O)C1O` (centres undefined), the EC50 is > 100 µM and the IC50 is > 100 µM. With `Cc1ccc(C(=O)O)c(O)c1`, the EC50 is > 1620 µM and the IC50 was determined as 1050 µM. For the compound `N#CC(C#N)=Cc1ccc2c(c1)OC(Cl)O2` (centres undefined), the outcome was inactive.

In the case of `S=c1n(-c2ccc(Cl)cc2)c2nc3ccccc3nc(/c2=N\Nc2ccccc2)n1-c1ccccn1`, the EC50 was > 37.2 µM and the IC50 came out at 29.5 µM. As to `COC(=O)C(Cc1nc2ccccc2[nH]c1=O)C(=O)C(=O)Nc1ccc(F)cc1` (centres undefined), the EC50 was > 91.2 µM and the IC50 came to 16.2 µM. In the case of `CN(C)c1ccc(/C=C2/SC(=S)NC2=O)cc1`, the EC50 was > 38 µM and the concentration for half-maximal inhibition (IC50) is > 38 µM. Turning to `CCOC(=O)Cn1c(=O)cc(C=O)c2ccccc21`, the EC50 was > 200 µM and the IC50 is 15.5 µM.

For `Cc1nc(N)nn1C1OCC(O)C(O)C1O` (centres undefined), the result was inactive. Turning to `O=C1c2ccccc2C(=O)c2sc(Nc3cc(Cl)ccc3Cl)nc21`, the EC50 was > 200 µM and the IC50 came to 10.5 µM. Regarding `C=C1C(=O)c2cc3c(cc2C(c2cc(OC)c(OC)c(OC)c2)[C@@H]1C(=O)O)OCO3` (some centres undefined), the outcome was inactive. As to `Cc1ccc(C)c2c1C1CCCCC3(OCCCO3)C21O` (centres undefined), the EC50 was > 200 µM and the IC50 is > 200 µM. As for `S=C1Cc2c(-c3ccccc3)cc(-c3cccc(Cl)c3)nc2-c2ccccc2N1`, the outcome was inactive. For the compound `N#CCC(=O)Nc1ccccc1O`, the EC50 is > 708 µM and the IC50 was > 708 µM. As to `N#Cc1ccc(-n2cccc2)cc1`, the EC50 is > 200 µM and the IC50 was > 200 µM.

As to `O=C1CN(Cc2ccc(Cl)cc2)CC(=O)N2Cc3ccccc3CN12`, the EC50 is > 191 µM and the IC50 amounted to 148 µM.

As to `Cc1ccc(Nc2c(C#N)[n+]([O-])c3cc(Cl)ccc3[n+]2[O-])cc1`, the EC50 is > 20 µM and the IC50 was 19.1 µM. The like results for `O=C(O)/N=N\C(=O)O` were, in that order, > 151 µM and > 151 µM. Take `CC1(C)C=C(/C=N/Nc2ccc(Br)cc2)C(C#N)=C(O)C1(C#N)C#N`: the EC50 was > 200 µM and the concentration for half-maximal inhibition (IC50) was 28.8 µM.

For `COc1cc(=O)cc2n(c1=O)CCC2`, the EC50 was > 447 µM and the half-inhibitory concentration (IC50) was > 447 µM. For the compound `NC(CS)C(=O)O` (centres undefined), the EC50 is > 182 µM and the IC50 is > 182 µM. For the compound `COP(=O)(OC)c1nc(P(=O)(OC)OC)nc(P(=O)(OC)OC)n1`, the EC50 is > 110 µM and the IC50 came to 89.1 µM. Consider `c1ccc([P+](CCCCCCCCCC[P+](c2ccccc2)(c2ccccc2)c2ccccc2)(c2ccccc2)c2ccccc2)cc1`, for which the EC50 was > 200 µM and the IC50 worked out at 0.589 µM. The like results for `FC(F)(F)c1ccc(N=NN2CCCC2)cc1` were, in that order, > 200 µM and 22.9 µM.

Consider `COc1cc2cnc3c4cc(O)ccc4ccc3c2cc1OC`, for which the EC50 was > 85.1 µM and the IC50 turned out to be 44.7 µM. For `O=C(NCCN1CCCCC1)c1ccc(I)cc1`, in that order: > 200 µM and > 200 µM. `CNC(=O)N(CCCCC(NC(C)=O)C(=O)NCc1ccccc1)Cc1ccccc1` (centres undefined): the EC50 was > 589 µM and the IC50 is > 589 µM. In the case of `Cn1c2ccccc2c2ncc3[nH]c4ccccc4c3c21`, the result was inactive. On to `COc1ccc2c(c1)OC[C@@H]1c3cc4c(cc3O[C@H]21)OCO4`, for which the EC50 is > 63.1 µM and the half-maximal inhibitory concentration (IC50) was > 63.1 µM. `Cc1ccc(SSc2ccc(C)cc2)cc1`: the EC50 is > 20 µM, the result was inactive and the half-inhibitory concentration (IC50) worked out at 3.55 µM. Consider `NNC1=N/C(=C\c2ccco2)C(=O)N1`, for which the EC50 was > 200 µM and the 50% inhibitory concentration (IC50) was determined as 162 µM. As to `CC(NCc1c(O)ccc2ccc(=O)oc12)C(=O)O` (centres undefined), the EC50 is > 200 µM and the IC50 is > 200 µM.

On to `O=C(O)CCCC[P+](c1ccccc1)(c1ccccc1)c1ccccc1`, for which the EC50 was > 200 µM and the IC50 is > 200 µM. Take `CCNC(=S)N/N=C/c1cc(OC)ccc1O`: the EC50 was > 200 µM and the IC50 came to 107 µM. On to `CC(C)=CCC1(c2ccccc2)Oc2cccnc2-n2cccc2C1=O` (centres undefined), for which the EC50 is > 200 µM and the IC50 turned out to be 28.8 µM. In the case of `C=C(NC(=O)C(=C)NC(=O)c1ccc2c(n1)-c1coc(n1)C(=C)NC(=O)C(=C)NC(=O)c1nc(oc1C)C(=C)NC(=O)C(C(C)(C)O)NC(=O)C(=C)NC(=O)c1coc(n1)/C(=C/C)NC(=O)[C@H]([C@@H](C)O)NC(=O)c1csc-2n1)C(N)=O` (some centres undefined), the EC50 was > 100 µM and the concentration for half-maximal inhibition (IC50) is > 100 µM. On to `O=C1Cc2ccccc2N1/N=C\c1ccc([N+](=O)[O-])cc1`, for which the EC50 was > 67.6 µM and the IC50 was > 67.6 µM.

In the case of `O=C1c2c(O)ccc(O)c2C(=O)c2c(NCCCCCO)ccc(NCCCCCO)c21`, the outcome was inactive. Turning to `O=C(Cn1cc(-c2ccccc2)nn1)NC1CCCC1`, the EC50 was > 200 µM and the IC50 was > 200 µM. For the compound `COc1cc(OC)c2c(=O)c(OC)c(-c3ccc4c(c3)OCO4)oc2c1`, the EC50 is > 200 µM and the IC50 is > 200 µM. Consider `COc1cc2cc(c1Cl)N(C)C(=O)CC(OC(=O)C(C)N(C)C(=O)C(C)C)C1(C)OC1C(C)C1CC(O)(NC(=O)O1)C(OC)/C=C/C=C(C)C2OC` (centres undefined), for which the outcome was inactive. As for `Cc1cc(Cl)c(O)c(-c2cc(-c3ccc([N+](=O)[O-])cc3)c3c(N)[nH]c(=O)nc3n2)c1`, the EC50 was > 200 µM and the IC50 was 5.25 µM. As to `NCCSSc1ccccc1[N+](=O)[O-]`, the EC50 is > 200 µM and the IC50 came out at 11.2 µM.

With `CCOC(=O)C(NC(=O)c1ccc(N=NN(C)C)cc1)C(C)C` (centres undefined), the EC50 is > 407 µM and the IC50 stood at 309 µM. On to `CCC[C@@H]1C(=O)N=C(N)N1C(=O)OCc1ccccc1`, for which the EC50 was > 200 µM and the IC50 is > 200 µM.

For the compound `Cc1cc(C)c2c(c1)CC1(Cc3c(C)ccc(C)c3C1=O)C2=O` (centres undefined), the EC50 is > 100 µM and the IC50 is > 100 µM. On to `COC(=O)c1cc(CC(C)C)c2c(c1)[nH]c1ccccc12`, for which the EC50 was > 35.5 µM and the 50% inhibitory concentration (IC50) is > 35.5 µM.

Consider `O=[N+]([O-])c1ccc(/C=C/c2ccc(/C=C/c3ccc([N+](=O)[O-])cc3[N+](=O)[O-])cc2)c([N+](=O)[O-])c1`, for which the result was inactive. Consider `CC(=O)OC1C[C@@H](C)C2(CC(c3ccoc3)OC2=O)C2CCC(O)C3(CO3)C12CO` (some centres undefined), for which the EC50 is > 200 µM and the IC50 is > 200 µM. For the compound `Nc1nc(NCC2(CO)CCC2)cc(=O)[nH]1`, the EC50 was > 200 µM and the IC50 was > 200 µM. For `O=S1c2ccccc2N=C(c2ccc3ccccc3c2)CC1C1=CC=CCC1` (centres undefined), the EC50 is > 18.6 µM and the IC50 was > 18.6 µM. Regarding `CN1c2ccccc2S(=O)(=O)n2c(CCc3ccccc3)nnc21`, the EC50 was > 105 µM and the IC50 is > 105 µM. Consider `O=C(Nc1ccccc1-c1ccccc1)c1ccccc1`, for which the EC50 is > 200 µM and the IC50 was found to be 91.2 µM. With `C=C(C(=O)O)C1CCC(CC/C=C(\C)CC/C=C(\C)CCC=C(C)C)CO1` (centres undefined), the EC50 is > 200 µM and the IC50 came out at 6.17 µM. The like results for `NC1=Nc2ccccc2N(O)N1` were, in that order, > 158 µM and > 158 µM.
